Results from patent US12522575B2, “2-diarylmethyl-4-aminotetrahydropyran derivatives and related compounds as anticancer, antiinflammatory, antifibrotic and neuroprotective agents” (Atux Iskay LLC, priority 2021, dated 2026).

How the values were obtained:
Type in all cases: cell-based
[1] = test system: A172 glioblastoma cells; assay: A172 cell viability / proliferation (CellTiter-Glo); settings: Homo sapiens, A 172, 48-72 hours treatment, read-out: IC50 for A172 cell growth
Procedure: (§1) A172 glioblastoma cells were cultured in Dulbecco's modified Eagle's medium (DMEM) supplemented with 10% fetal bovine serum and 1% Penicillin-streptomycin. Incubation was performed at 37° C. and 5% CO2.
A172 cells were seeded at 3000-3500 cells/90 μL growth medium per well on 96-well tissue culture plates. Cells were incubated overnight to allow them to recover and reattach. Next day cells were treated with tested compounds and incubated for 48-72 hours.
Cell Proliferation assays in triplicate were performed at each concentration. Compounds test range was 1-30 µM (0, 5, 10, 15, 20, 25, and 30). The compounds were dissolved in DMSO. […]
After treatment, cells were allowed to equilibrate at room temperature for 1/2 to one hour. Cell proliferation was measured by Luminescence quantification using Promega CellTiter-Glo Luminescent Cell Viability Assay. […] Luminescence intensity was measured using the Spectramax i3× plate reader.
The Luminescence intensity data were analyzed using the computer software Graphpad Prism. In the absence of the compound, the luminescence intensity (Lt) in each data set was defined as 100% cell viability. The percent cell in the presence of each compound was calculated according to the following equation: % Cell=L/Lt, were L=the luminescence intensity in the presence of the compound. […]

[2] = test system: D425 medulloblastoma cells; assay: D425 cell viability / proliferation (CellTiter-Glo); settings: Medulloblastoma cell; 48 hours treatment, CellTiter-Glo; read-out: IC50 for D425 cell growth
Procedure: D425 medulloblastoma cells were purchased from SigmaAldrich. D425 meduloblastoma cells were cultured in improved Dulbecco's modified Eagle's medium (DMEM) Richter's modification supplemented with 20% fetal bovine serum and 1% Penicillin-streptomycin. Incubation was performed at 37° C. and 5% CO2.
D425 cells were seeded at 3000-3500 cells/90 ul growth medium per well on 96-well tissue culture plates. Cells were incubated overnight to allow them to recover. Next day cells were treated with tested compounds and incubated for 48 hours.
Cell Proliferation assays in triplicate were performed at each concentration. Compounds test range was 1-30 μM (0, 5, 10, 15, 20, 25, and 30). The compounds were dissolved in DMSO. A series of dilutions were made in 1% DMSO in growth medium so that the final concentration of DMSO is 0.1% in all of treatments.
After treatment, cells were allowed to equilibrate at room temperature for one hour. Cell proliferation was measured by Luminescence quantification using Promega CellTiter-Glo Luminescent Cell Viability Assay. To perform the assay, 90 ul of Celltiter-Glo substrate was added to each well, plates were shake for 2 minutes and allowed to equilibrate for 10 minutes at room temperature. Luminescence intensity was measured using the Spectramax i3x plate reader.
The Luminescence intensity data were analyzed using the computer software Graphpad Prism. In the absence of the compound, the luminescence intensity (Lt) in each data set was defined as 100% cell viability. The percent cell in the presence of each compound was calculated according to the following equation: % Cell=L/Lt, were L=the luminescence intensity in the presence of the compound.
The values of % cell versus a series of compound concentrations (0, 5, 10, 15, 20, 25, and 30 μM) were then plotted using Nonlinear regression analysis of Sigmoidal dose-response curve. IC50 value was determined by the concentration causing a half-maximal percent activity.

[3] = test system: ERK and JNK; assay: ERK and JNK signaling in lung fibroblasts (immunoblot, densitometry); settings: 1 μM, 24 hours, lung fibroblasts (FIGS. 2 and 3)
Procedure: Each dot represents cells from a different subject. Student t-tests or 2-way ANOVA were performed and a p-value […] was denoted as ** when comparing between phosphorylated and unphosphorylated groups.
Compounds of the present invention reactivate PP2A responses in fibroblasts from healthy and IPF subjects.

[4] = test system: lung fibroblasts from healthy subjects; assay: Fibrosis associated gene expression in lung fibroblasts; settings: 1 μM, 24 hours, TGF-β (FIG. 1)
Procedure: Each dot represents cells from a different subject. Student t-tests or 2-way ANOVA were performed and a p-value […] was denoted as * when comparing to the vehicle treated groups or ** when comparing to the TGF-β vehicle groups.
Compounds of the present invention activate PP2A responses in fibroblasts from healthy subjects. Lung fibroblasts from 6 subjects were stimulated with 1 micromolar of example compounds for 24 hours.

[5] = test system: PP2A; assay: PP2A responses in lung fibroblasts; settings: 1 μM, 24 hours
Procedure: Each dot represents cells from a different subject. Student t-tests or 2-way ANOVA were performed and a p-value […] was denoted as * when comparing to the vehicle treated groups.
Each dot represents cells from a different subject. Student t-tests were performed and a p-value […] was denoted as * when comparing non-smoker (NS) to IPF vehicle groups or ** when comparing vehicle IPF to compound IPF groups. Left plot: cell source-healthy non-smoker; Middle plot: cell source—IPF; Right: cell source—IPF.
IPF fibroblasts were exposed to v or 1 micromolar of the ATUX compounds media for 24 hours and increase in PP2A activity is shown in right hand group. PP2A activity in vehicle treated fibroblasts from healthy nonsmokers is shown for comparison in the left hand group.

[6] = test system: phosphatase activity in ApoE transfected A172 glioblastoma cells; assay: Cellular in vitro phosphatase activation assay (Malachite Green) in ApoE transfected A172 cells; settings: 24 hours
Procedure: Cellular in vitro phosphatase activation assay was performed using the method of Theendakara et al, Molecular and Cellular Neuroscience, 83 (2017), pages 83-91 which is described below:
as §1
A172 cells were seeded at 5×10^5 cells/2.5 ml growth medium (without antibiotics) per well on 6-well tissue culture plates. Cells were incubated overnight to allow them to recover and reattach. […]
After 24 hrs, cells were washed twice with imidazole buffer and lysed using NP-40 Lysis buffer. […] The amount of phosphate release in the assay was determined by measuring absorbance at 620 nm using the Spectramax i3x plate reader.
The absorbance intensity data were analyzed using the computer software Graphpad Prism. The phosphate concentration for each sample was determined from the standard curve using phosphate standard concentrations. In order to compare samples, the first set (column A) were there was no transfection performed and no compound added, was designated a baseline; the absorbance measurement in this column was set as 100% phosphatase activity.

With `O=S(=O)(NC1CCOC(C2c3ccc(F)cc3CCc3cc(F)ccc32)C1)c1ccc(OC(F)(F)F)cc1` (stereo not shown) [Example 6, N-(2-(2,8-difluoro-10,11-dihydro-5H-dibenzo[a,d][7]annulen-5-yl)tetrahydro-2H-pyran-4-yl)-4-(trifluoromethoxy)benzenesulfonamide] the IC50 [1] was 9.9 µM, the IC50 [2] was 5.8 µM and the “ERK and JNK signaling” value [3] was “reduced ERK and JNK signaling”. The pro-fibrotic gene expression [4] was “suppression of pro-fibrotic gene expression”, the “PP2A responses in lung fibroblasts from healthy subjects” value ([5]; vs vehicle (FIG. 4)) was “reactivation of PP2A responses” and the “PP2A responses in lung fibroblasts from idiopathic pulmonary fibrosis (IPF)” value ([5]; vs vehicle IPF (FIG. 5)) was “reactivation of PP2A responses”. For the same compound, the “% increase from ApoE transfected cell at 5 μM test compound concentration” value [6] was 6.8%.
